Patent US20240390468A1, “SURVIVIN AND MAGE-A9 DUAL-TARGETED IMMUNOTHERAPY” (IMMUNOVACCINE TECHNOLOGIES INC., priority 2022, published 2024)

How the values were obtained:
[1] = target: MHC class 1 allele A*02:01 (Homo sapiens, UniProt P04439, D140Y/D185E/D98H/E176V/E277Q/G131W/G231S/I119V/I121R/I166T/I218V/L300P/L318F/N151K/N90K/P208A/P217A/Q86G/Q94H/R138H/R169H/T345S); assay: REVEAL binding of HLA-A2 binding peptides; conditions: Higher REVEAL score
[2] = system: spleen cells; assay: Spleen cell studies (omission of peptide 223); format: cell-based
[3] = system: peptide-loaded RMA-S HHD cells; assay: Chromium 51 release assay (CTL assay); format: cell-based, mice; conditions: effector:target 75:1, 50:1, 25:1; mice immunized with recombinant MAGE-A9 and poly(I:C)

ALSVMGVYV [MAGE-A9 223, MAGE-A9 peptide antigen]
binding to MHC class 1 allele A*02:01 (in words) [1]: high binding | impact of omission on immunogenic potential of a final formulation [2]: does not significantly impact | CTL response (51Cr-release) [3]: elicited a response
